Assay results as given in ChEMBL document CHEMBL6092202, “4-Anilinoquinazoline Derivatives as the First Potent NOD1-RIPK2 Signaling Pathway Inhibitors at the Nanomolar Range” (J Med Chem, 2024).
In brackets after ≈: the same amount, converted by molar mass. Activity calls are given as the source filed them. The rule behind the calls is not given here.

Legend:
[1] = molecular target: T1, Nucleotide-binding oligomerization domain-containing protein 1 (Homo sapiens, UniProt Q9Y239); assay: (§1) Inhibition of human NOD1 expressed in HEK-Blue hNOD1 cells coexpressing NF-kappaB-inducible SEAP reporter gene assessed as inhibition of NF-kappaB transcriptional activity by measuring decrease in SEAP activity preincubated for 30 mins followed by C12-iE-DAP addition and measured after 18 hrs by absorbance based spectrophotometric analysis; format: cell-based
T1 sequence (Q9Y239 whole entry): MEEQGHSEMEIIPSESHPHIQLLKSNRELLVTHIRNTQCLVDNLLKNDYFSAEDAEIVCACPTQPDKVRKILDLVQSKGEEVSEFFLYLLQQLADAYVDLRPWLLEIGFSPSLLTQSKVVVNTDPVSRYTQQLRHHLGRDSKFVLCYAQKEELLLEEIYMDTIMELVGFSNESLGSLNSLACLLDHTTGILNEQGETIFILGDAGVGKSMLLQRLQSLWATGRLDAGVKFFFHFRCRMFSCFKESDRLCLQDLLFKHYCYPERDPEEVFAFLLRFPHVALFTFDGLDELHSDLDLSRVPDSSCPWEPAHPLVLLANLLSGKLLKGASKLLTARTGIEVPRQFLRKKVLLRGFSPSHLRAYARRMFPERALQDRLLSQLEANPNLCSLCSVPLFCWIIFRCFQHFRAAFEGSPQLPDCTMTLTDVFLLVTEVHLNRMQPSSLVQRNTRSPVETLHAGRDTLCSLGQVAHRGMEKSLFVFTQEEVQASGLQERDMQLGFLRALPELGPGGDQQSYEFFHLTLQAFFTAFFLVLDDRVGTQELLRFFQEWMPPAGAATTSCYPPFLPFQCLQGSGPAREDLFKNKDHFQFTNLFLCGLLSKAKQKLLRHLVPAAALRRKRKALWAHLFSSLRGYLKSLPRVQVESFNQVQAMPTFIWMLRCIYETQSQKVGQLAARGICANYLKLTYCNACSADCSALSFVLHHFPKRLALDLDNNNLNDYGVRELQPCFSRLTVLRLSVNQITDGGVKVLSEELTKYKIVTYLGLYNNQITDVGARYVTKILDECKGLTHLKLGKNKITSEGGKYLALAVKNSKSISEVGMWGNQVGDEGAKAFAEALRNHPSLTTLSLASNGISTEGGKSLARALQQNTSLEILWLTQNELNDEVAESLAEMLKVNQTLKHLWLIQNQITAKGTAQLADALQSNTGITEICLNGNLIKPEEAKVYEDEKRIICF

[2] = molecular target: Nucleotide-binding oligomerization domain-containing protein 2 (Homo sapiens, UniProt Q9HC29); assay: as §1, with “NOD2” for “NOD1”, “hNOD2” for “hNOD1”; format: cell-based
[3] = molecular target: Receptor-interacting serine/threonine-protein kinase 2 (Homo sapiens, UniProt O43353); assay: Inhibition of human recombinant RIPK2 (1 to 317 residues) expressed in Sf21 insect cells using MBP as substrate preincubated for 10 mins followed by substrate addition and measured after 1 hr by ADP-Glo luminescence assay
[4] = molecular target: Epidermal growth factor receptor (Homo sapiens, UniProt P00533); assay: Inhibition of recombinant EGFR (unknown origin) using PGT as substrate preincubated for 10 mins followed by substrate addition and measured after 1 hr in presence of ATP by ADP-Glo luminescence assay
[5] = Cytotoxicity against HEK-Blue hNOD1 cells assessed as reduction in cell viability at 1 uM measured after 72 hrs by celltiter 96 aqueous one solution cell proliferation assay; format: toxicity, cell-based; conditions: human, hek-blue hnod1, 72 h
Huh-7 = assay: Cytotoxicity against human Huh-7 cells assessed as reduction in cell viability at 1 uM measured after 72 hrs by celltiter 96 aqueous one solution cell proliferation assay; format: toxicity, cell-based; conditions: huh-7, 72 h
[6] = Cytotoxicity against human THP1-Blue NF-kappaB cells assessed as reduction in cell viability at 1 uM measured after 72 hrs by celltiter 96 aqueous one solution cell proliferation assay; format: toxicity, cell-based
[7] = Inhibition of recombinant VEGFR (unknown origin) using PGT as substrate preincubated for 10 mins followed by substrate addition and measured after 1 hr by ADP-Glo luminescence assay; parameters: species or system Homo sapiens
[8] = Solubility of the compound in PBS buffer at pH 7.4; format: physicochemical
[9] = Stability in plasma (unknown origin) assessed as half life; format: ADME, cell-free
[10] = Lipophilicity, logD of compound at pH 7.4; format: physicochemical; conditions: buffer
[11] = Metabolic stability in liver microsomes (unknown origin) assessed as half life; format: ADME, Microsome
[12] = Metabolic stability in liver microsomes (unknown origin) assessed as intrinsic clearance; format: ADME, Microsome; conditions: read-out: CLH
HEK-Blue hNOD1 = assay: Anti-inflammatory activity in HEK-Blue hNOD1 cells assessed as reduction in C12-iE-DAP stimulated IL-8 secretion at 0.01 to 1 uM preincubated for 1 hr followed by C12-iE-DAP addition and measured after 22 hrs by fluorescence based analysis; format: functional, cell-based; conditions: Homo sapiens, dose 0.01-1 µM, time 23.0 hrs

Chain of Nucleotide-binding oligomerization domain-containing protein 2 (Q9HC29 whole entry, the tested form may be a part): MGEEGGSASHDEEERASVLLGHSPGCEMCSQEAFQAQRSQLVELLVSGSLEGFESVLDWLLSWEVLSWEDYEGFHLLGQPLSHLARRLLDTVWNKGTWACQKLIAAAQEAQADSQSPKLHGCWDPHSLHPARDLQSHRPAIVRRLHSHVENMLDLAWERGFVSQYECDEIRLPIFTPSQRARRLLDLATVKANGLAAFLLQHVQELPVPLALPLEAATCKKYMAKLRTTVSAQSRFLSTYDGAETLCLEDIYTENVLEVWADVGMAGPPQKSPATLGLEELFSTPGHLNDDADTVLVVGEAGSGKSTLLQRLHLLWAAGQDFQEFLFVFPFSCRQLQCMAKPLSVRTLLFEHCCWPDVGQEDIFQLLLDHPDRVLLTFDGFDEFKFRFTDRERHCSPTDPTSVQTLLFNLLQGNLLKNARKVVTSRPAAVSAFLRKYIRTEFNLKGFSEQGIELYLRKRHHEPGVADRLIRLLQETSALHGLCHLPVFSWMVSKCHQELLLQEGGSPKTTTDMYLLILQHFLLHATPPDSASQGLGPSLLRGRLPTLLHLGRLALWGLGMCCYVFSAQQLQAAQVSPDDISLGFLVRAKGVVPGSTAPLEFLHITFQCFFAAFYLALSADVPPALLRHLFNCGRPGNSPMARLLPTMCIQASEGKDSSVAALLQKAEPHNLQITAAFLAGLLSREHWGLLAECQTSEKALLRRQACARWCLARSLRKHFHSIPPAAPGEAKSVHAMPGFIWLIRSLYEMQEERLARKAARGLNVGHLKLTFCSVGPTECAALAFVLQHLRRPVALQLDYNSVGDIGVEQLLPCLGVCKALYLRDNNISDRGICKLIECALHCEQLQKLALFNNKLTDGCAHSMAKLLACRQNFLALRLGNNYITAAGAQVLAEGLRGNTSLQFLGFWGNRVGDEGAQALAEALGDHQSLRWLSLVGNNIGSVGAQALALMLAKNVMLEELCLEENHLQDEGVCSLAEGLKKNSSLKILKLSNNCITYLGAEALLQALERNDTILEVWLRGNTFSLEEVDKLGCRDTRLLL
Chain of Epidermal growth factor receptor (P00533 whole entry): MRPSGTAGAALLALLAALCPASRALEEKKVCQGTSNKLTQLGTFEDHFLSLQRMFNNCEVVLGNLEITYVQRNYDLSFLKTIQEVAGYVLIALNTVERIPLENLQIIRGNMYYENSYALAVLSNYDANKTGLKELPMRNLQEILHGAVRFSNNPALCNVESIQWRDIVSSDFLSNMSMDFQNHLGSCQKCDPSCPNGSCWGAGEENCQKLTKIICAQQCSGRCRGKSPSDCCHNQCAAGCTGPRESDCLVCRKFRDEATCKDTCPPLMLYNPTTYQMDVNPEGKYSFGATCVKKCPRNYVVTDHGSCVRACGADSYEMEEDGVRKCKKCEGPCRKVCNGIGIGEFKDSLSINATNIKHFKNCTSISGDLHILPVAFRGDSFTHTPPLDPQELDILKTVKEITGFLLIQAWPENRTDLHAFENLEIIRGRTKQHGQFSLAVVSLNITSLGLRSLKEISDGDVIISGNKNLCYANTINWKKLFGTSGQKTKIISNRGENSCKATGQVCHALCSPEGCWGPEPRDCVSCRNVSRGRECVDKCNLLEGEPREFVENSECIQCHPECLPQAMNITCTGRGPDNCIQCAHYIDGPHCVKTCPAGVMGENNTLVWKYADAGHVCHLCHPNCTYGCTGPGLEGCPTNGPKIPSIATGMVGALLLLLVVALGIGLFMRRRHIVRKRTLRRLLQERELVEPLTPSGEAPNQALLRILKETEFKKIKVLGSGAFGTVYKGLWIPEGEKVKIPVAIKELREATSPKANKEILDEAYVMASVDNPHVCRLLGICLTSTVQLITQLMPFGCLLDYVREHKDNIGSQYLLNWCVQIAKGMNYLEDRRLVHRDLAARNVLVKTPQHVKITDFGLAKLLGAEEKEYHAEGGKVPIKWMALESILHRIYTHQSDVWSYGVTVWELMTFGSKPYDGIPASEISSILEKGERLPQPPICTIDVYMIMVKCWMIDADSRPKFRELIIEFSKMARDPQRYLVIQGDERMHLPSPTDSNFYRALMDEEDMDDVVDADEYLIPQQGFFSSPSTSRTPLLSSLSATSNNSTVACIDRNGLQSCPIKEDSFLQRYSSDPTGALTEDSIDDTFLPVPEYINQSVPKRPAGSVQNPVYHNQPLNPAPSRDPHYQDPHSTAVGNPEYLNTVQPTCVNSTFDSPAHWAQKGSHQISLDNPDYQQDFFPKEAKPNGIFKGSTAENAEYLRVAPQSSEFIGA
Chain of Receptor-interacting serine/threonine-protein kinase 2 (O43353 whole entry, the tested form may be a part): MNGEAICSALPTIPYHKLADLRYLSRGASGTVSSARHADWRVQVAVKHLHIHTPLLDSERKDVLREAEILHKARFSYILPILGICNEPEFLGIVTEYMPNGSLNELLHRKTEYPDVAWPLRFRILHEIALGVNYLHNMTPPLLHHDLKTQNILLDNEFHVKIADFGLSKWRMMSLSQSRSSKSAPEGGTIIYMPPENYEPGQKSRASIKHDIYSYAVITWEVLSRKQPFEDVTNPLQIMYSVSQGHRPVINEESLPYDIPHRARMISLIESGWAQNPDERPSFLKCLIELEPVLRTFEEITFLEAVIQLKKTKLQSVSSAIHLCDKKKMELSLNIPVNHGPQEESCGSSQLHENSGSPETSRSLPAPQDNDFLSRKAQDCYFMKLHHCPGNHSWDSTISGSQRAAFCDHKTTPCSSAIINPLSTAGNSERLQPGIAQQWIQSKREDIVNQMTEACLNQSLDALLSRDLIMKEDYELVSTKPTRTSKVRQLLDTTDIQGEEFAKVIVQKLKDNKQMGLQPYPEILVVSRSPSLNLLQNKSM

With COc1cc2ncnc(Nc3ccc(Br)cc3F)c2cc1OC the IC50 [1] was 549 nM and the IC50 [2] was > 10000 nM.
With COc1cc2ncnc(Nc3cc(Br)ccc3Br)c2cc1OC the IC50 [2] was > 10000 nM.
For CCCS(=O)(=O)Nc1cc(-c2cc(-c3ccc(N4CCNCC4)cc3)cnc2N)cc(F)c1OC, the IC50 [2] was 219 nM and the IC50 [3] was 1.93 nM.
With COc1cc2ncnc(Nc3ccc(Cl)cc3Cl)c2cc1OC the IC50 [1] was > 10000 nM and the IC50 [2] was > 10000 nM.
With CCN(CC)CCOc1cc2c(Nc3cc(OC)c(Cl)cc3Cl)ncnc2cc1OC the IC50 [2] was > 10000 nM.
With COc1cc2ncnc(Nc3ccncc3)c2cc1OC the IC50 [2] was > 10000 nM.
For COc1cc2ncnc(Nc3ccc(Br)c(O)c3)c2cc1OC, the IC50 [2] was > 10000 nM.
In the case of COc1cc2ncnc(Nc3ccc4scnc4c3)c2cc1OC.Cl, the IC50 [2] is reported as > 10000 nM, the IC50 [4] is reported as 36 nM and the Activity [5] is reported as “Non-toxic”. For the same compound, the Activity (Huh-7) was “Non-toxic” and the Activity [6] was “Non-toxic”.
In the case of COc1cc2ncnc(Nc3ccc(Cl)c(Cl)c3)c2cc1OC, the IC50 [2] is reported as > 10000 nM.
In the case of CCN(CC)CCOc1ccc2c(Nc3cc(OC)c(Cl)cc3Cl)ncnc2c1, the IC50 [2] is reported as > 10000 nM.
In the case of COc1ccc(Cl)c(Nc2ncnc3cc(OC)c(OC)cc23)c1, the IC50 [1] is reported as 686 nM and the IC50 [2] is reported as > 10000 nM.
In the case of COc1cc2ncnc(-n3nc(N)c4cc(F)ccc43)c2cc1OC, the IC50 [2] is reported as > 10000 nM.
In the case of COc1cc2ncnc(Nc3n[nH]c(C)c3C)c2cc1OC, the IC50 [1] is reported as > 10000 nM and the IC50 [2] is reported as > 10000 nM.
For CCN(CC)CCOc1cc2ncnc(Nc3cc(OC)c(Cl)cc3Cl)c2cc1OC, the IC50 [1] was 42 nM, the IC50 [2] was > 10000 nM and the IC50 [7] was > 1000 nM. The IC50 [4] was > 1000 nM, the solubility [8] was 31 µM (≈ 14.4 µg/mL) and the half-life [9] was > 6 h. For the same compound, the logD [10] was 0.88, the half-life [11] was > 0.667 h and the microsomal CLint [12] was 29 µL/min/mg. The Activity [5] was “Non-toxic”, the Activity (Huh-7) was “Non-toxic” and the Activity [6] was “Non-toxic”.
With COc1cc2ncnc(Nc3ccccc3Cl)c2cc1OC the IC50 [2] was > 10000 nM.
With COc1cc(Nc2ncnc3cc(OC)c(OC)cc23)c(F)cc1Br the IC50 [2] was > 10000 nM.
In the case of COc1cc2ncnc(Nc3cccc(O)c3)c2cc1OC, the IC50 [1] is reported as 157 nM and the IC50 [2] is reported as > 10000 nM.
For COc1cc2ncnc(Nc3cc(N)ccn3)c2cc1OC, the IC50 [2] was > 10000 nM.
For COc1cc(Nc2ncnc3cc(OC)c(OC)cc23)ccc1Cl, the IC50 [2] was > 10000 nM.
With COc1cc2ncnc(Nc3ccccc3)c2cc1OC the IC50 [1] was > 10000 nM and the IC50 [2] was > 10000 nM.
For COc1cc2ncnc(Nc3cc(O)c(Cl)cc3Cl)c2cc1OC, the IC50 [1] was > 10000 nM and the IC50 [2] was > 10000 nM.
In the case of COc1cc(Nc2ncnc3c(OC)c(OC)c(OC)cc23)c(Cl)cc1Cl, the IC50 [2] is reported as > 10000 nM.
In the case of COc1cc2ncnc(Nc3cccc(N)c3)c2cc1OC, the IC50 [1] is reported as > 10000 nM and the IC50 [2] is reported as > 10000 nM.
For COc1cc2ncnc(Nc3n[nH]c4ccc(F)cc34)c2cc1OC, the IC50 [2] was > 10000 nM.
With COc1cc2ncnc(Nc3ccc(F)c(Cl)c3)c2cc1OCCCN1CCOCC1 [GEFITINIB] the IC50 [1] was 605 nM, the IC50 [2] was 1080 nM and the Activity [5] was “Non-toxic”. The Activity (Huh-7) was “Non-toxic” and the Activity [6] was “Non-toxic”.
With Cc1ccc(S(=O)(=O)n2c(N)nc3ccccc32)cc1 the IC50 [2] was > 10000 nM, the IC50 [3] was > 1000 nM and the Activity (HEK-Blue hNOD1) was “inactive”.
For COc1cc2ncnc(Nc3ccc(Cl)cc3)c2cc1OC, the IC50 [1] was 283 nM and the IC50 [2] was > 10000 nM.
In the case of COc1cc2ncnc(Nc3ccc(Cl)c(O)c3)c2cc1OC.Cl, the IC50 [1] is reported as 33 nM, the IC50 [2] is reported as > 10000 nM and the IC50 [7] is reported as 1.39 nM. For the same compound, the IC50 [4] was 0.84 nM, the Activity [5] was “Non-toxic” and the Activity (Huh-7) was “Non-toxic”. The Activity [6] was “Non-toxic”.
For COc1cc2ncnc(Nc3ccc(Cl)c(N)c3)c2cc1OC, the IC50 [2] was > 10000 nM, the IC50 [4] was 0.46 nM and the Activity [5] was “Non-toxic”. The Activity (Huh-7) was “Non-toxic” and the Activity [6] was “Non-toxic”.
For COCCOc1cc2ncnc(Nc3cc(OC)c(Cl)cc3Cl)c2cc1OCCOC, the IC50 [2] was > 10000 nM.
For COc1cc2ncnc(Nc3ccc(F)c(O)c3)c2cc1OC, the IC50 [2] was > 10000 nM, the IC50 [7] was 3.02 nM and the IC50 [4] was 2.55 nM. The Activity [5] was “Non-toxic”, the Activity (Huh-7) was “Non-toxic” and the Activity [6] was “Non-toxic”.
With COc1cc2ncnc(Nc3ccc(F)c(Cl)c3)c2cc1OC the IC50 [1] was 1340 nM and the IC50 [2] was > 10000 nM.
For COc1cc(Nc2ncnc3cc(OC)c(OC)cc23)c(Cl)cc1Cl, the IC50 [2] was > 10000 nM, the IC50 [4] was 61.3 nM and the Activity [5] was “Non-toxic”. For the same compound, the Activity (Huh-7) was “Non-toxic” and the Activity [6] was “Non-toxic”.
For COc1cc2ncnc(Nc3cccc(Cl)c3)c2cc1OC, the IC50 [1] was > 10000 nM and the IC50 [2] was > 10000 nM.
